PMC8253220, “Molecular design, synthesis and in vitro biological evaluation of thienopyrimidine–hydroxamic acids as chimeric kinase HDAC inhibitors: a challenging approach to combat cancer” (Journal of Enzyme Inhibition and Medicinal Chemistry, 2021)
Values joined by “and” are separate entries in the source; they are usually repeats but may differ in a detail not shown here. Identical values can stand only once.

Columns and labels:
Test in all cases: NCI one-dose screen
Format in all cases: cell-based, human
RXF 393 = conditions: Renal RXF 393, 10 µM single dose
In short: (§1)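 At 10 μM, a single concentration, compounds were evaluated for antiproliferative effect in the NCI 60-line screen, with growth expressed relative to untreated control cells.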

M14 = conditions: Melanoma M14, 10 µM single dose
In short: as §1

UACC-62 = conditions: Melanoma UACC-62, 10 µM single dose
In short: as §1

HCT-15 = conditions: Colon HCT-15, 10 µM single dose
In short: as §1

SK-MEL-5 = conditions: Melanoma SK-MEL-5, 10 µM single dose
In short: as §1

MDA-MB-468 = conditions: for Growth Percent: Breast MDA-MB-468, 10 µM single dose
In short: (§2)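 Following the standard NCI-60 protocol, compounds were applied once at 10 μM to all 60 cancer lines. Read-out is percent growth versus untreated controls, expressed as inhibition %.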

HT29 = conditions: Colon HT29, 10 µM single dose
In short: as §1

NCI/ADR-RES = conditions: Ovarian NCI/ADR-RES, 10 µM single dose
In short: as §1

CCRF-CEM = conditions: Leukemia CCRF-CEM, 10 µM single dose
In short: as §1

SW-620 = conditions: Colon SW-620, 10 µM single dose
In short: as §1

UO-31 = conditions: for Growth Percent: Renal UO-31, 10 µM single dose; for inhibition at 10 µM: Homo sapiens, renal UO-31, 10 μM
In short: (§3)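 One concentration (10 μM) applied to each line of the full NCI-60 panel; percent growth compared against untreated cells.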

HS 578T = conditions: Breast HS 578T, 10 µM single dose
In short: as §1

SK-MEL-2 = conditions: Melanoma SK-MEL-2, 10 µM single dose
In short: as §1

SNB-75 = conditions: for Growth Percent: CNS SNB-75, 10 µM single dose
In short: as §3

A549/ATCC = conditions: NSCLC A549/ATCC, 10 µM single dose
In short: as §1

DU-145 = conditions: Prostate DU-145, 10 µM single dose
In short: as §1

IGROV1 = conditions: Ovarian IGROV1, 10 µM single dose
In short: as §1

NCI-H226 = conditions: for Growth Percent: NSCLC NCI-H226, 10 µM single dose
In short: as §3

MOLT-4 = conditions: Leukemia MOLT-4, 10 µM single dose
In short: as §2

HOP-62 = conditions: NSCLC HOP-62, 10 µM single dose
In short: as §1

EKVX = conditions: NSCLC EKVX; for Growth Percent: 10 µM single dose
In short: as §3

OVCAR-4 = conditions: Ovarian OVCAR-4, 10 µM single dose
In short: as §1

SMILES | Growth Percent (RXF 393) | Growth Percent (M14) | Growth Percent (UACC-62) | Growth Percent (HCT-15) | Growth Percent (SK-MEL-5) | Growth Percent (MDA-MB-468) | Growth Percent (HT29) | Growth Percent (NCI/ADR-RES) | Growth Percent (CCRF-CEM) | Growth Percent (SW-620) | Growth Percent (UO-31) | Growth Percent (HS 578T) | Growth Percent (SK-MEL-2) | Growth Percent (SNB-75) | Growth Percent (A549/ATCC) | Growth Percent (DU-145) | Growth Percent (IGROV1) | Growth Percent (NCI-H226) | Growth Percent (MOLT-4) | Growth Percent (HOP-62) | other results
Cc1c(C(=O)NCCC(=O)NO)sc2ncnc(Nc3ccc(NC(=O)Nc4cccc(C(F)(F)F)c4)cc3)c12 [Compound 11c, 1–(4-(6-((3-(hydroxyamino)-3-oxopropyl)carbamoyl)-5-methylthieno[2,3-d]pyrimidin-4-ylamino)phenyl)-3–(3-(trifluoromethyl)phenyl)urea] | 103.8% and 103.88% | 107.0% and 107.01% | 99.6% and 99.62% | 101.2% and 101.22% | 97.1% and 97.12% | 97.1% and 97.16% | 109.8% and 109.85% | 103.1% and 103.18% | 98.8% and 98.82% | 104.3% and 104.35% | 87.0% and 87.09% | 93.51% | 108.7% and 108.73% | 78.8% | 103.7% and 103.74% | 105.3% and 105.34% | 102.2% and 102.29% | 97.9% | 105.7% and 105.79% | 101.7% | Growth Percent (EKVX): 90.7% and 90.76%; Growth Percent (OVCAR-4): 105.0% and 105.02%
Cc1c(C(=O)NCCCC(=O)NO)sc2ncnc(Nc3ccc(F)c(Cl)c3)c12 [Compound 20d, 4–(3-chloro-4-fluorophenylamino)-N-(4-(hydroxyamino)-4-oxobutyl)-5-methylthieno[2,3-d]pyrimidine-6-carboxamide] | 102.5% and 102.57% | 102.6% | 93.7% and 93.74% | 99.6% and 99.67% | 100.4% and 100.45% | 83.8% and 83.88% | 107.1% and 107.13% | 104.1% and 104.13% | 107.9% and 107.95% | 103.1% and 103.17% | 76.3% and 76.32% | 99.9% and 99.99% | 113.2% and 113.22% | 90.4% and 90.45% | 94.0% and 94.08% | 109.9% and 109.99% | 98.9% and 98.94% | 88.7% and 88.71% | 109.8% and 109.84% | 105.6% and 105.66% | inhibition at 10 µM (MDA-MB-468; Homo sapiens, breast MDA-MB-468, 10 μM): 16.2%; inhibition at 10 µM (UO-31): 23.7%; inhibition at 10 µM (NCI-H226; Homo sapiens, NSCLC NCI-H226, 10 μM): 11.3%; Growth Percent (EKVX): 94.4% and 94.41%; Growth Percent (OVCAR-4): 104.8% and 104.88%
COc1cccc(NC(=O)Nc2ccc(Nc3ncnc4sc(C(=O)NCCCC(=O)NO)c(C)c34)cc2)c1 [Compound 12b, 1–(4-(6-((4-(hydroxyamino)-4-oxobutyl)carbamoyl)-5-methylthieno[2,3-d]pyrimidin-4-ylamino)phenyl)-3–(3-methoxyphenyl)urea] | 110.4% and 110.44% | 104.0% and 104.04% | 95.3% and 95.39% | 99.6% and 99.68% | 97.3% and 97.37% | 97.0% and 97.02% | 95.3% | 101.6% and 101.63% | 103.5% and 103.52% | 101.5% and 101.51% | 82.0% and 82.06% | 99.2% | 94.6% and 94.66% | 90.6% and 90.62% | 105.8% and 105.84% | 98.5% and 98.54% | 97.0% and 97.08% | 96.6% and 96.68% | 104.7% and 104.76% | 100.4% and 100.49% | Growth Percent (EKVX): 92.1% and 92.11%; Growth Percent (OVCAR-4): 99.9% and 99.93%
Cc1c(C(=O)NO)sc2ncnc(Nc3cccc4[nH]cnc34)c12 [Compound 15a, 4-(1H-benzo[d]imidazol-4-ylamino)-N-hydroxy-5-methylthieno[2,3-d]pyrimidine-6-carboxamide] | 101.2% and 101.28% | 106.5% and 106.58% | 94.2% and 94.26% | 102.15% | 101.5% and 101.54% | 101.3% and 101.31% | 103.9% and 103.93% | 102.6% and 102.67% | 110.7% and 110.72% | 103.6% and 103.66% | 80.6% and 80.64% | 106.4% and 106.47% | 115.8% and 115.88% | 81.0% and 81.08% | 99.5% and 99.51% | 109.5% and 109.53% | 97.9% and 97.91% | 99.3% and 99.31% | 104% and 104.07% | 104.2% | Growth Percent (EKVX): 98.4% and 98.44%; Growth Percent (OVCAR-4): 111.9% and 111.94%
Cc1c(C(=O)NCCC(=O)NO)sc2ncnc(Nc3ccccc3)c12 [Compound 19b, N-(3-(hydroxyamino)-3-oxopropyl)-5-methyl-4-(phenylamino)thieno[2,3-d]pyrimidine-6-carboxamide] | 94.1% and 94.17% | 106.1% and 106.19% | 95.6% and 95.69% | 95.0% and 95.07% | 94.4% and 94.42% | 92.2% and 92.23% | 104.9% and 104.96% | 97.2% and 97.26% | 101.13% | 99.6% and 99.64% | 86.4% and 86.41% | 103.8% and 103.85% | 108.6% and 108.65% | 81.4% and 81.46% | 98.3% | 108.0% and 108.08% | 101.8% and 101.82% | 89.4% and 89.44% | 107.4% and 107.47% | 100.4% and 100.46% | Growth Percent (EKVX): 87.3% and 87.34%; Growth Percent (OVCAR-4): 104.9% and 104.94%
Cc1c(C(=O)NO)sc2ncnc(Nc3ccc(Cl)cc3)c12 [Compound 15c, 4–(4-chlorophenylamino)-N-hydroxy-5-methylthieno[2,3-d]pyrimidine-6-carboxamide] | 106.7% and 106.75% | 107.8% and 107.86% | 92.4% and 92.45% | 101.7% and 101.72% | 96.9% and 96.96% | 102.9% and 102.91% | 101.8% and 101.84% | 102.1% and 102.16% | 103.4% and 103.44% | 102.6% and 102.65% | 71.2% | 102.5% and 102.54% | 94.5% and 94.54% | 79.5% and 79.59% | 105.8% and 105.88% | 108.8% and 108.86% | 72.7% and 72.73% | 85.6% and 85.66% | 102.3% and 102.36% | 92.8% and 92.81% | inhibition at 10 µM (UO-31): 28.8%; inhibition at 10 µM (SNB-75; Homo sapiens, CNS SNB-75, 10 μM): 20.4%; inhibition at 10 µM (EKVX; Homo sapiens, 10 μM): 20.6%; Growth Percent (EKVX): 79.4% and 79.43%; Growth Percent (OVCAR-4): 106.3% and 106.34%
